This is an account of results in patent publication US10889572B2, “Reactive oxygen species scavengers and use for treating diseases” (XW LABORATORIES INC., priority 2017, dated 2021).

Where two headings read alike, the source gives them in different places.

For test [1], the system named is HT-1080 (fibrosarcoma) cells. The test can be described thus: Primary screening by ferroptosis assay (Erastin-induced, cell viability, CellTiter-Glo). The class given is cell-based. Particulars: HT-1080 cells, % remaining activity, read-out: EC50, Inhibition for Ferroptosis in HT-1080 Cell. The protocol: Cell Lines and Media: HT-1080 (fibrosarcoma) cells were obtained from American Type Culture Collection. Cells were grown in EMEM media, 10% Heat-Inactivated FBS, and penicillin-streptomycin mix (Invitrogen). Cells were maintained at 37° C. and 5% CO2 in a tissue culture incubator.
Cell Viability Assay: Seed 10,000 cell/well of HT-1080 cells with 195 μL growth media in black and clear bottom 96-well plates (Cat #Corning 3904) and allow cells to adhere overnight. The next day, dilute test compound by 2-fold dilution into 12 points with medium containing 400 μM Erastin. Transfer 5 μL of compounds solution into growth medium in triplicated wells. 30 hours later, add Cell Titer-Glo® Luminescent cell viability assay reagent (Cat #, Promega G8081) to measure HT-1080 cell viability according to the manufacture protocol. Briefly, aspirate 100 μL medium, and add 50 μL CellTiter-Glo® Luminescent reagent to each well and incubated for 30 minutes at room temperature to stabilize the Luminescent signal. Seal the plates and centrifuged for 1 minute at 1,000 rpm to remove bubbles. Shake the plates for 1 minute on an orbital shaker. Read the plate to detect Luminescent signal with EnSpire Multimode Plate Reader (PerkinElmer). The remaining activity % is used to evaluate Erastin induced ferroptosis in HT-1080 cells and expressed as the following formula: % Remaining Activity−100×[(Sample−Backgroundavg)/(Vehicle−Background avg)]
Sample: Readout from the test compound
Vehicle: Readout from the vehicle sample
Background: Readout from the Erastin only treatment
Dose response curve is graphed by using the non-linear regression analysis (formula equation 201) in XLFit (Excel add-in software) for the average % remaining activity from triplicates, and the EC50 values is then calculated. In this anti-ferroptosis assay, ferrostatin-1, and XJB-5-131 are included as reference. The acceptance criteria were set based on historical result, mean±2.58*SD in logarithmic scale, meanwhile Z′>0.5.
For orientation: In ATP-based viability assays light output follows the ATP content of the culture.

The next test deals with 3T3-L1 cells. The test can be described thus: Apoptosis assay (Caspase-Glo 3/7, Actinomycin D induced). In kind it is cell-based. Particulars: 100 nM Actinomycin D, 48 hours, Caspase-Glo 3/7, 2 hours pre-treatment, read-out: EC50, Inhibition for Apoptosis in 3T3-L1 Cell induced by Actinomycin D. The protocol:
Cell Lines and Media. 3T3-L1 cells were obtained from American Type Culture Collection. Cells were grown in DMEM completed media, 10% FBS, and penicillin-streptomycin mix (Invitrogen). Cells were maintained at 37° C. and 5% CO2 in a tissue culture incubator.
Apoptosis Assay. […] We used this assay to screen our compounds for apoptosis inhibition. Briefly, 40 μL of 3000 3T3-L1 cells were seeded per well in 384 well plates, cells were allowed to adhere overnight. In the next day, prepare the Actinomycin D as the apoptosis inducing agent into 100 μM DMSO stock. Prepare the test compounds into 10 mM DMSO stock. Serial dilute the compound into 10 points by 3-fold dilution with DMSO. Pre-treat the 3T3-L1 cells with test compound by transfer 40 nL of stock of serial concentration in triplicate wells using acoustic fluid transfer, incubate for 2 hours. Then transfer 40 nL of 100 μM of Actinomycin D (final concentration is 100 nM) into designated wells using acoustic fluid transfer. Incubate the assay plates at 37° C., 5% CO2, 95% humidity incubator for 48 hours. For caspase assay, add 20 μL/well of Caspase-Glo>3/7 reagent (Promega) into test wells. Incubate for 30 minutes at room temperature to stabilize the luminescence signal. Read the plate with EnSpire Multimode Plate Reader (PerkinElmer). Calculate the EC50 value using formula equation 201: y−(A+((B−A)/(1+((x/C)^D)))) from the XLFit (Excel add-in software), where
A: Average mean of vehicle samples
B: Average mean of cells treated with 100 nM AcD
Z′ factor was used to describe the screening assay perfonuance. The Z′ factor value was >0.5 in all the test plates which indicated the assay was qualified and the IC50 value was reliable for all tested compounds.

Consider “1-Oxyl-2,2,6,6-tetramethylpiperidin-4-yl-N-[(4S)—4-{[(2S)-1-[(2S,3E,5S)-2-benzyl-5-{[(tert- butoxy)carbonyl]amino}-7-methyloct-3-enoyl]pyrrolidin-2-yl]formamido}-4-[(1-oxyl-2,2,6,6-tetramethylpiperidin-4-yl)carbamoyl]butyl]carbamate [Example XXXXII]”, for which the concentration for a half-maximal effect (EC50) – broadly, the concentration at which the effect is half-maximal – in test [1] (30 hours) was determined as 274 nM; with 3T3-L1 cells it was 708 nM.
Take `CC(C)C[C@@H](/C=C/[C@H](Cc1ccccc1)C(=O)N1CCC[C@H]1C(=O)NC(CCCNC(=O)OCc1ccccc1)C(=O)NC1CC(C)(C)N(O)C(C)(C)C1)NC(=O)OC(C)(C)C` (stereo in doubt) [Example V, Benzyl N-[(4R)—4-{[(2S)-1-[(2S,3E,5S)-2-benzyl-5-{[(tert-butoxy)carbonyl]amino}-7-methyloct-3-enoyl]pyrrolidin-2-yl]formamido}-4-[(1-hydroxy-2,2,6,6-tetramethylpiperidin-4-yl)carbamoyl]butyl]carbamate]: the EC50 in test [1] (Homo sapiens, HT-1080, 30 h) amounted to 141 nM; in the test on 3T3-L1 cells (Mus musculus, 3T3-L1), 1310 nM.
For the molecule `CC(C)C[C@@H](/C=C/[C@H](Cc1ccccc1)C(=O)N1CCC[C@H]1C(=O)N[C@@H](CCCNC(=O)OCc1ccccc1)C(=O)NC1CC(C)(C)N(O)C(C)(C)C1)NC(=O)OC(C)(C)C` [Example I, Benzyl N-[(4S)—4-{[(2S)-1-[(2S,3E,5S)-2-Benzyl-5-{[(Tert-Butoxy)Carbonyl]Amino}-7-Methyloct-3-Enoyl]Pyrrolidin-2-Yl]Formamido}-4-[(1-Oxyl-2,2,6,6-Tetramethylpiperidin-4-Yl)Carbamoyl]Butyl]Carbamate], the EC50 in test [1] (30 hours) is 260 nM; in the test on 3T3-L1 cells, 1580 nM.
Consider `CC(C)C[C@@H](/C=C/[C@H](Cc1ccccc1)C(=O)N1CCC[C@H]1C(=O)N[C@@H](C(=O)NC1CC(C)(C)N([O])C(C)(C)C1)C(C)C)NC(=O)OC(C)(C)C` [Example II, tert-Butyl ((4S,7S,E)-7-benzyl-8-((S)-2-(((R)-1-((1-oxyl-2,2,6,6-tetramethylpiperidin-4-yl)amino)-3-methyl-1-oxobutan-2-yl)carbamoyl)pyrrolidin-1-yl)-2-methyl-8-oxooct-5-en-4-yl)carbamate], for which the EC50 came out at 289 nM in test [1] (Homo sapiens, 30 hours) and 3040 nM in the test with 3T3-L1 cells (Mus musculus, 3T3-L1).
For `CC(C)C[C@@H](/C=C/[C@H](Cc1ccccc1)C(=O)N1CCC[C@H]1C(=O)N[C@@H](C(=O)N[C@@H](CCCNC(=O)OCc1ccccc1)C(=O)NC1CC(C)(C)N(O)C(C)(C)C1)C(C)C)NC(=O)OC(C)(C)C` [Example IV] the same measures were 564 nM and 1270 nM.
With `CC(C)C[C@@H](/C=C/[C@H](Cc1ccccc1)C(=O)N1CCC[C@H]1C(=O)N[C@@H](CCCNC(=O)OCc1ccccc1)C(=O)NC1CC(C)(C)N(O)C(C)(C)C1)NC(=O)OC(C)(C)C` [Example IX, Benzyl N-[(4S)—4-{[(2S)-1-[(2S,3E,5S)-2-benzyl-5-{[(tert-butoxy)carbonyl]amino}-7-methyloct-3-enoyl]pyrrolidin-2-yl]formamido}-4-[(1-hydroxy-2,2,6,6-tetramethylpiperidin-4-yl)carbamoyl]butyl]carbamate], the EC50 amounted to 261 nM in test [1] (30 hours) and 1370 nM in the test with 3T3-L1 cells (Mus musculus, 3T3-L1).
With `CC(C)C[C@@H](/C=C/[C@H](Cc1ccccc1)C(=O)N1CCC[C@@H]1C(=O)N[C@H](C(=O)N[C@@H](CCCNC(=O)OCc1ccccc1)C(=O)NC1CC(C)(C)N(O)C(C)(C)C1)C(C)C)NC(=O)OC(C)(C)C` [Example VII, Benzyl N-[(4S)-4-[(2S)—2-{[(2R)-1-[(2S,3E,5S)-2-benzyl-5-{[(tert-butoxy)carbonyl]amino}-7-methyloct-3-enoyl]pyrrolidin-2-yl]formamido}-3-methylbutanamido]-4-[(1-hydroxy-2,2,6,6-tetramethylpiperidin-4-yl)carbamoyl]butyl]carbamate], the half-maximal effective concentration (EC50) in test [1] (Homo sapiens, 30 hours) was determined as 342 nM; with 3T3-L1 cells (Mus musculus, 3T3-L1) it was 4640 nM.
For `CC(C)C[C@@H](/C=C/[C@H](Cc1ccccc1)C(=O)N1CCC[C@H]1C(=O)N[C@@H](C(=O)N[C@@H](CCCNC(=O)OCc1ccccc1)C(=O)NC1CC(C)(C)N(O)C(C)(C)C1)C(C)C)NC(=O)OCC1CC1` [Example X, Cyclopropylmethyl N-[(4S,5E,7S)-7-benzyl-8-[(2S)—2-{[(1R)—1-{[(1S)—4-{[(benzyloxy)carbonyl]amino}-1-[(1-hydroxy-2,2,6,6-tetramethylpiperidin-4-yl)carbamoyl]butyl]carbamoyl}-2-methylpropyl]carbamoyl}pyrrolidin-1-yl]-2-methyl-8-oxooct-5-en-4-yl]carbamate] the same measures were 285 nM and 1380 nM.
With `CC(C)C[C@@H](/C=C/[C@H](Cc1ccccc1)C(=O)N1CCC[C@H]1C(=O)N[C@@H](CCCNC(=O)OC1CC(C)(C)N(O)C(C)(C)C1)C(=O)OC(C)C)NC(=O)OC(C)(C)C` [Example XXIX, Propan-2-yl (2S)—2-{[(2S)-1-[(2S,3E,5S)-2-benzyl-5-{[(tert-butoxy)carbonyl]amino}-7-methyloct-3-enoyl]pyrrolidin-2-yl]formamido}-5-({[(1-oxyl-2,2,6,6-tetramethylpiperidin-4-yl)oxy]carbonyl}amino)pentanoate], the EC50 in test [1] (Homo sapiens, HT-1080, 30 h) amounted to 73 nM; in the test on 3T3-L1 cells (Mus musculus, 3T3-L1) it was 4320 nM.
Turning to `CC(C)C[C@@H](/C=C/[C@H](Cc1ccccc1)C(=O)N1CCC[C@H]1C(=O)N[C@@H](CCCCNC(=O)OCc1ccccc1)C(=O)NC1CC(C)(C)N(O)C(C)(C)C1)NC(=O)OC(C)(C)C` [Example XXVI, Benzyl N—[(5 S)—5-{[(2S)-1-[(2S,3E,5S)-2-benzyl-5-{[(tert-butoxy)carbonyl]amino}-7-methyloct-3-enoyl]pyrrolidin-2-yl]formamido}-5-[(1-oxyl-2,2,6,6-tetramethylpiperidin-4-yl)carbamoyl]pentyl]carbamate], the EC50 in test [1] (Homo sapiens, HT-1080, 30 h) was determined as 140 nM; in the test with 3T3-L1 cells (Mus musculus, 3T3-L1) it was 683 nM.
Take `CC(C)CC(C=CC(Cc1ccccc1)C(=O)N1CCCC1C(=O)NC(CCCNC(=O)OC1CC(C)(C)N([O])C(C)(C)C1)C(N)=O)NC(=O)OC(C)(C)C` [Example XXVIII, tert-Butyl N-[(4S,5E,7S)-7-benzyl-8-[(2S)—2-{[(1S)-1-carbamoyl-4-({[(1-oxyl-2,2,6,6-tetramethylpiperidin-4-yl)oxy]carbonyl}amino-)butyl]carbamoyl}pyrrolidin-1-yl]-2-methyl-8-oxooct-5-en-4-yl]carbamate]: the EC50 in test [1] (30 hours) was 251 nM; in the test with 3T3-L1 cells, 3930 nM.
With `CC(C)C[C@@H](/C=C/[C@H](Cc1ccccc1)C(=O)N1CCC[C@H]1C(=O)N[C@@H](CCCNC(=O)OC1CC(C)(C)N(O)C(C)(C)C1)C(=O)NC1CC(C)(C)N(O)C(C)(C)C1)NC(=O)OC(C)(C)C` [XXXXIII, 1-Hydroxy-2,2,6,6-tetramethylpiperidin-4-yl N-[(4S)—4-{[(2S)-1-[(2S,3E,5S)-2-benzyl-5-{[(tert-butoxy)carbonyl]amino}-7-methyloct-3-enoyl]pyrrolidin-2-yl]formamido}-4-[(1-hydroxy-2,2,6,6-tetramethylpiperidin-4-yl)carbamoyl]butyl]carbamate], the EC50 in test [1] (Homo sapiens, HT-1080, 30 h) was 123 nM.
